We go through one compound from US20240174744A1, “METHODS OF TREATMENT USING PROTEIN BINDERS TO IRHOM2 EPITOPES” (SCIRHOM GMBH, priority 2021, published 2024).

This experiment deals with LPS-induced release of TNFα from human macrophages from healthy donors. Nature of the experiment: ELISA-based TNFα release assay, human macrophages from healthy donors. In kind it is cell-based. The settings on record: Macrophage, recombinant murine antibodies, final concentration of 10 µg/ml, Batimastat 10 μM, LPS 5 ng/ml, 2 hours. As for the experimental part:
Complementary to Example 32 described above, ELISA-based TNFα release assays were performed to test the inhibitory effects of the antibodies on LPS-induced release of endogenous TNFα from human macrophages from healthy donors.
To obtain human macrophages, peripheral blood mononuclear cells (PBMCs) from 4 healthy donors were used. Cells from 5 ml human blood were resuspended in 20 ml of DMEM medium (Corning, USA) supplemented with 10% FCS (Atlanta Biological, USA) and Penicillin/Streptomycin (Corning, USA) (DMEM/FCS) and were then incubated on two 10 cm petri dishes (Thermo Fisher, USA) at 37° C., 5% CO2 for 3h. Non-adherent cells were subsequently removed and 6 ml of DMEM/FCS supplemented with 10 ng/ml human MCSF (Peprotech, USA) (DMEM/FCS/MCSF) was added per plate. Both plates were incubated at 37° C., 5% CO2 for 2 days, then 2 ml of DMEM/FCS/MCSF was added to each plate on day 2 and 4. On day 5, all medium was removed and attached cells were washed once with 5 ml PBS (Corning, USA). 2 ml of Accutase (Promocell, USA) solution was added to each plate and incubated at 37° C. for 15 min. 10 ml of DMEM/FCS was added to each plate and detached cells were collected in a 15 ml Falcon tube. Cells were subsequently pelleted in a tabletop centrifuge (Eppendorf, USA) at 1,500 rpm for 5 min. […] 10 μl from this cell suspension was manually counted in a hemocytometer (Thermo Fisher, USA). […]
On the technique in general: In an ELISA, binding on a coated surface is turned into a signal by an enzyme label.

As a reminder, the inhibition is the share of the control response that was lost under treatment.

As for `CNC(=O)[C@H](Cc1ccccc1)NC(=O)[C@H](CC(C)C)[C@H](CSc1cccs1)C(=O)NO` [Batimastat], the inhibition at 10 µM is 68.3%.
